Tested on: Culex quinquefasciatus
Assay: Arm-in-cage repellent/deterrent bioassay on exposed human forearm (modified WHO protocol), Culex quinquefasciatus
Assay type: in vivo
Method: Candidate repellents and deterrents were bioassayed according to a modified protocol from the World Health Organization (1996). At least 1 hour prior to each bioassay, 75 host-seeking non blood-fed, nulliparous, 5- to 8-day-old female Aedes aegypti, Anopheles gambiae or Culex quinquefasciatus were placed into a wood-framed cage (26.5 cm on each side and 42.5 cm high) with a wooden floor, screened mesh sides and top, and a clear acrylic front fitted with a cotton stockinette sleeve (10 cm diameter). The test subject's arm was covered with an elbow-length polyethylene glove with an excised patch (16.6 cm long, 6 cm wide) to expose the ventral forearm of the test subject. Candidate deterrents were formulated in mineral (paraffin) oil and applied to the exposed forearm 5 min prior to inserting the arm into the cage. The inserted arm remained in the cage for 3 min every 30 min. Prior to each 3-min bioassay period, the hand of the untreated arm was inserted into the cage to ascertain that it received 10 bites within 30 sec as an indication of “biting pressure”.
The bioassay was terminated when the treated arm received ≧2 bites in one 3-min bioassay period or one bite in each of two consecutive bioassay periods. The time elapsed from experiment initiation to first bite was recorded as deterrent failure or complete protection time.
N,N-diethyl-m-toluamide formulated in ethanol at a corresponding dose served as a positive control, and mineral oil by itself served as a negative control. On each day, only one candidate compound was tested, ensuring that any residual material in the chamber had disappeared before the next bioassay.
To determine the repellence and deterrence of 8-allylsulfanyloctan-1-ol against Culex quinquefasciatus, a 2% and 5% or a 10% formulation of 8-allylsulfanyloctan-1-ol in mineral oil was applied in Experiments 9-11 at a dose of 1.5 mg per cm^2 to the skin of the test person, and was bioassayed according to the protocol described under EXAMPLE 2. In Experiment 12, mineral oil by itself served as a negative control and was tested at the same dose (1.5 mg per cm^2) as in Experiments […]. Each of Experiments 9-11 was replicated 4 times.
To compare the repellence and deterrence against Culex quinquefasciatus caused by 8-allylsulfanyloctan-1-ol as a single active ingredient and by 8-allylsulfanyloctan-1-ol in combination with vanillin as a second active ingredient, we tested a 6.7% emulsion of vanillin (Experiment 22), a 6.7% emulsion of 8-allylsulfanyloctan-1-ol (Experiment 23) and a 13.4% emulsion of 8-allylsulfanyloctan-1-ol plus vanillin (1:1 ratio) (Experiment 24). 8-Allylsulfanyloctan-1-ol and vanillin were formulated in Emulsion No. 1 (see EXAMPLE 9). In each of Experiments […], test stimuli were applied at a dose of 1.5 mg per cm^2 to the skin of the test person, and were bioassayed according to the protocol described under EXAMPLE 2. In Experiment 25, Emulsion No. 1 served as a positive control and was tested at the same dose (1.5 mg per cm^2) as in Experiments 22-24. Each of Experiments 22-25 was replicated three times.

## C=CCSCCCCCCCCO [Compound 24, 8-allylsulfanyloctan-1-ol]
2% formulation in mineral oil, 1.5 mg per cm^2, Experiment 9
  protection from bites, average duration: 198 min
5% formulation in mineral oil, 1.5 mg per cm^2, Experiment 10
  protection from bites, average duration: 319 min
6.7% single active in Emulsion No. 1 (FIG. 9 legend: 2.0%), 1.5 mg per cm^2, Experiments 22, 23
  protection from bites, average duration: 242 min
10% formulation in mineral oil, 1.5 mg per cm^2, Experiment 11
  protection from bites, average duration: 495 min
10% formulation in mineral oil, Experiment 11, each of the three replicates
  protection status when experiment was terminated after eight hours: complete protection against bites
